Source: US20060148763A1, “Compounds and methods for regulating triglyceride levels” (priority 2005, published 2006)

System: serum LDL
Assay: Phase II cross-over study of P5P alone and with lisinopril in hypertensive type 2 diabetic patients: LDL
Format: in vivo, human
Settings: for LDL change, 16 wk vs. baseline (b): LDL non-stratified data; for reduction in serum LDL levels: patients having elevated LDL levels (>2.59 mmol/L)
Method: Objective—A phase II clinical study was conducted to determine the effects of pyridoxal-5′-phosphate in combination with lisinopril on blood pressure and metabolic function in hypertensive patients with type 2 diabetes.
Summary of Study Design—The phase II study was a randomized, parallel group, cross-over, double-blinded to study medication, placebo-controlled comparison of P5P BID at total daily doses of 100, 300, or 1000 mg alone and in combination with 20 mg lisinopril given once daily (QD). In order to protect against antihypertensive and metabolic carry-over effects of lisinopril, all patients were randomized in 2 different treatment sequences. Patients randomized in the first treatment sequence receive an 8-week treatment with lisinopril 20 mg and P5P (or placebo) and then an 8-week treatment with P5P alone (or placebo). Patients randomized in the second treatment sequence receive an 8-week treatment with P5P alone and then an 8-week treatment with lisinopril 20 mg and P5P (or placebo). In each treatment sequence, all patients were randomized to P5P at the different prespecified dosages.
Mean trough sitting and standing BP were measured at each visit. Twenty-four hour ambulatory BP monitoring (ABPM) were performed at Visit 2 prior to randomization (end of washout period) and after week 8 (Visit 5) and week 16 (Visit 8) weeks of active therapy. Laboratory tests were performed at screening (Visit 1), prior to randomization (Visit 2), at week 2 (Visit 3a), week 8 (Visit 5), week 10 (Visit 6a), and at week 16 (Visit 8).
Treatment Plan—Two to Four-week Washout (Baseline) Period. Patients were instructed on the proper procedure for discontinuing their current antihypertensive medications (discontinuation or tapering) according to the manufacturer's label specifications. If a patient's current antihypertensive treatment needed to be tapered earlier, the Investigator complied with the corresponding timelines before randomization. With the exception of any tapering off of prior therapy, if any, no other anti-hypertensive medication was given to the patient during the washout period. Patients continued any existing diabetic treatment with sulfonylureas (tolbutamide, tolazamide, acetohexamide, chlorpropamide and second generation glyburide, glipizide, glimepiride), D-Phenylalanine derivatives, metformin, thiazolidinediones, acarbose, miglitol, and/or insulin throughout the study. Patients received placebo to be taken twice daily during the washout period. Standard diabetic medication was maintained throughout study. The duration of the washout period was two to four weeks, at the discretion of the Investigator taking into consideration whether the patient's blood pressure had stabilized following removal of any prior antihypertensive medication.
Active (Study) Medication Period: After the washout period, eligible patients were randomized to one of the 2 following sequences of treatment for 16 weeks.
Week 0 to 8: Treatment period (P5P alone (or placebo) or P5P (or placebo) and Lisinopril)
Week 8 to 16: Treatment period (P5P alone (or placebo) or P5P (or placebo) and Lisinopril)
Study Groups—The patients were randomized into one of […] groups:
Sequence 1 P5P 300 mg and then P5P 300 mg+Lisinopril 20 mg
Sequence 2 P5P 300 mg+Lisinopril 20 mg and then P5P 300 mg alone
All medications were taken at the same time each day during washout and treatment periods:
Other Efficacy Endpoints—Analytical efficacy measurements, including markers of metabolic function (insulinemia, fasting serum glucose, glycated hemoglobin, LDL, HDL, non-HDL and triglycerides), endothelial function (ICAM-1, VCAM-1, E-selectin and albuminuria), kidney function (creatinine, glomular filtration rate), CRP and homocysteine, were conducted on blood samples taken on Visits 2, 5 and 8. Samples were sent to a central laboratory for analysis.

[1] = P5P 300 mg, patients with LDL >2.59 mmol/L

Compound: Cc1ncc(COP(=O)(O)O)c(C=O)c1O [P5P, pyridoxal-5′-phosphate]
- LDL change, 16 wk vs. baseline (b) (P5P 300 mg): −0.15 mmol/L (p = 0.194)b
- reduction in serum LDL levels (P5P 300 mg): about 0.41 mmol/L
- LDL change [1]: −0.41 mmol/L (p = 0.04)
- LDL reduction [1]: (12% reduction)
- LDL change, 16 wk vs. baseline (b) (P5P 1000 mg): −0.15 mmol/L (p = 0.197)b
- reduction in serum LDL levels (P5P 1000 mg): about 0.53 mmol/L
- LDL change (P5P 1000 mg, patients with LDL >2.59 mmol/L): −0.53 mmol/L (p = 0.075)
- average reduction in serum LDL levels (placebo corrected) (patients taking 300 mg or 1000 mg of P5P): 0.27 mmol/L
